Measured values from ChEMBL document CHEMBL5543121, “Drug Repurposing of ACT001 to Discover Novel Promising Sulfide Prodrugs with Improved Safety and Potent Activity for Neutrophil-Mediated Antifungal Immunotherapy” (J Med Chem, 2024).
The source made the active and inactive calls. The rule behind the calls is not given here.

Tests used:
[1] = Inhibition of fungal curdlan induced PD-L1 expression in mouse neutrophils at 40 uM relative to control; assay type: functional, Neutrophil; conditions: Mus musculus, Neutrophil
[2] = (§1) Cytotoxicity against mouse neutrophils assessed as cell viability at 40 uM relative to control; assay type: toxicity, cell-based, Neutrophil; conditions: mouse neutrophils, read-out: Activity
Candida albicans [3] = test: Antifungal activity against Candida albicans SC5314 assessed as inhibition of fungal growth measured every 3 hrs for 24 hrs by absorbance based analysis; assay type: functional, organism-based; conditions: dose 0.25-128 µg/ml
Neutrophil [4] = test: as §1; assay type: toxicity, cell-based; conditions: neutrophil, 40 µM
[5] = target: Signal transducer and activator of transcription 3 (Mus musculus) (UniProt P42227); test: Binding affinity to STAT3 in mouse bone marrow neutrophils at 20 uM by silver staining based pulldown assay; assay type: cell-based; conditions: Neutrophil
Sequence of Signal transducer and activator of transcription 3 (Mus musculus) (P42227 whole entry): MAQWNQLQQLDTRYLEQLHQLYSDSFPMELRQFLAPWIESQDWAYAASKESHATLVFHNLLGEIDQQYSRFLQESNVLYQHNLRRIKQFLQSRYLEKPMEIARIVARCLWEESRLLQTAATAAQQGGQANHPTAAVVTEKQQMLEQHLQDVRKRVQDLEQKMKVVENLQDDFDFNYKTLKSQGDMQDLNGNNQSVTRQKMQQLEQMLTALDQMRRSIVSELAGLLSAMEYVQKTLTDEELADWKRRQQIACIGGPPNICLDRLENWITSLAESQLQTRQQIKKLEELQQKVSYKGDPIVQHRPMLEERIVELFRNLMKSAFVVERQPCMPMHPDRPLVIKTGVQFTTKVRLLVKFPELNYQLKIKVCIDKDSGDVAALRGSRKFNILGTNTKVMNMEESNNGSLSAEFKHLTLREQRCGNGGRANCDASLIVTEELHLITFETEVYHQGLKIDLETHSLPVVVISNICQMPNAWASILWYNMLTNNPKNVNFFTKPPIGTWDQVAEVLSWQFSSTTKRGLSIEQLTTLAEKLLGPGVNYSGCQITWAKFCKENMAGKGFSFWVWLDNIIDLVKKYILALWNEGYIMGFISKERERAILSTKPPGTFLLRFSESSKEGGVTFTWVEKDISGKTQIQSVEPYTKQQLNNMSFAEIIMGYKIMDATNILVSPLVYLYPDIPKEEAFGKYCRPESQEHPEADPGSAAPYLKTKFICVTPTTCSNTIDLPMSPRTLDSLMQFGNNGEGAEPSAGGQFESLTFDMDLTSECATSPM

[6] = target: Signal transducer and activator of transcription 3 (Mus musculus) (UniProt P42227); test: Binding affinity to STAT3 in mouse bone marrow neutrophils at 20 uM by pulldown based Western blot analysis; assay type: cell-based; conditions: Neutrophil
[7] = Induction of apoptosis in mouse neutrophils assessed as live cells at 20 uM incubated for 16 hrs by Annexin V-FITC/PI staining based flow cytometry analysis (reference value: 48.5%); assay type: toxicity, cell-based, Neutrophil; conditions: read-out: Activity
Neutrophil [8] = test: Induction of apoptosis in mouse neutrophils assessed as early apoptotic cells at 20 uM incubated for 16 hrs by Annexin V-FITC/PI staining based flow cytometry analysis (reference value: 25.9%); assay type: toxicity, cell-based
Neutrophil [9] = test: Induction of apoptosis in mouse neutrophils assessed as late apoptotic cells at 20 uM incubated for 16 hrs by Annexin V-FITC/PI staining based flow cytometry analysis (reference value: 24.1%); assay type: toxicity, cell-based
Neutrophil [10] = test: Induction of apoptosis in mouse neutrophils assessed as dead cells at 20 uM incubated for 16 hrs by Annexin V-FITC/PI staining based flow cytometry analysis (reference value: 1.58%); assay type: toxicity, cell-based
[11] = Induction of apoptosis in mouse neutrophils assessed as live cells at 40 uM incubated for 16 hrs by Annexin V-FITC/PI staining based flow cytometry analysis (reference value: 48.5%); assay type: toxicity, cell-based, Neutrophil; conditions: read-out: Activity
Neutrophil [12] = test: Induction of apoptosis in mouse neutrophils assessed as early apoptotic cells at 40 uM incubated for 16 hrs by Annexin V-FITC/PI staining based flow cytometry analysis (reference value: 25.9%); assay type: toxicity, cell-based
Neutrophil [13] = test: Induction of apoptosis in mouse neutrophils assessed as late apoptotic cells at 40 uM incubated for 16 hrs by Annexin V-FITC/PI staining based flow cytometry analysis (reference value: 24.1%); assay type: toxicity, cell-based
Neutrophil [14] = test: Induction of apoptosis in mouse neutrophils assessed as dead cells at 40 uM incubated for 16 hrs by Annexin V-FITC/PI staining based flow cytometry analysis (reference value: 1.58%); assay type: toxicity, cell-based
[15] = Inhibition of fungal curdlan induced PD-L1 expression in mouse neutrophils assessed as reduction in PD-L1 positive Ly6G positive neutrophils incubated for 16 hrs by flow cytometry analysis; assay type: functional, cell-based; conditions: Neutrophil
[16] = Cytotoxicity against mouse neutrophils assessed as reduction in cell viability incubated for 16 hrs by flow cytometry analysis; assay type: toxicity, cell-based, Neutrophil
[17] = Therapeutic index, ratio of IC50 for cytotoxicity against mouse neutrophils to IC50 for inhibition of fungal curdlan induced PD-L1 expression in mouse neutrophils; assay type: toxicity; conditions: read-out: Ratio IC50
[18] = Permeability of compound in PBS/EtOH (70:30) buffer incubated for 12 hrs by PAMPA-BBB assay; assay type: ADME; conditions: read-out: permeability
[19] = Half life in Sprague-Dawley rat; assay type: ADME; conditions: in vivo
[20] = Oral bioavailability in Sprague-Dawley rat; assay type: ADME, organism-based; conditions: in vivo
[21] = AUC (0 to infinity) in Sprague-Dawley rat at 20 mg/kg, iv; assay type: ADME, organism-based; conditions: in vivo
Candida albicans [22] = test: Induction of neutrophil-mediated antifungal immunity against Candida albicans SC5314 infected in mouse assessed as reduction in PD-L1 positive Ly6G positive neutrophils in bone marrow at 100 mg/kg, po administered once a day for 3 days by flow cytometry analysis; assay type: functional, organism-based; conditions: time 3.0 day
Candida albicans [23] = test: Induction of neutrophil-mediated antifungal immunity against Candida albicans SC5314 infected in mouse assessed as reduction in PD-L1 positive Ly6G positive neutrophils in kidney at 100 mg/kg, po administered once a day for 3 days by flow cytometry analysis; assay type: functional, organism-based; conditions: time 3.0 day
Candida albicans [24] = test: Induction of neutrophil-mediated antifungal immunity against Candida albicans SC5314 infected in mouse assessed as inhibition of CXCL1 protein expression in bone marrow at 100 mg/kg, po administered once a day for 3 days by ELISA; assay type: functional, organism-based; conditions: time 3.0 day
Candida albicans [25] = test: Induction of neutrophil-mediated antifungal immunity against Candida albicans SC5314 infected in mouse assessed as inhibition of CXCL2 protein expression in bone marrow at 100 mg/kg, po administered once a day for 3 days by ELISA; assay type: functional, organism-based; conditions: time 3.0 day
Candida albicans [26] = test: Induction of neutrophil-mediated antifungal immunity against Candida albicans SC5314 infected in mouse assessed as reduction in accumulation of Ly6G positive neutrophils in bone marrow at 100 mg/kg, po administered once a day for 3 days; assay type: functional, organism-based; conditions: time 3.0 day
Neutrophil [27] = test: Induction of neutrophil-mediated antifungal immunity against Candida albicans SC5314 infected in mouse assessed as increase in neutrophil infiltration in kidney at 100 mg/kg, po administered once a day for 3 days; assay type: functional, organism-based; conditions: time 3.0 day
Candida albicans [28] = test: Induction of neutrophil-mediated antifungal immunity against Candida albicans SC5314 infected in mouse assessed as reduction in fungal burden in kidneys at 100 mg/kg, po administered once a day for 3 days; assay type: functional, organism-based; conditions: time 3.0 day
Candida albicans [29] = test: Induction of neutrophil-mediated antifungal immunity against Candida albicans SC5314 infected in mouse assessed as increase in animal survival rate at 100 mg/kg, po administered once a day for 3 days; assay type: functional, organism-based; conditions: time 3.0 day
Candida albicans [30] = test: Induction of neutrophil-mediated antifungal immunity against Candida albicans SC5314 infected in mouse assessed as reduction in fungal clusters in kidney at 100 mg/kg, po administered once a day for 3 days by PAS staining based analysis; assay type: functional, organism-based; conditions: time 3.0 day
Candida albicans [31] = test: Antifungal activity against Candida albicans SC5314 assessed as inhibition of fungal growth at 0.25 to 128 ug/ml measured every 3 hrs for 24 hrs by absorbance based analysis; assay type: functional, organism-based; conditions: dose 0.25-128 µg/ml
Candida albicans [32] = test: Induction of neutrophil-mediated antifungal immunity against Candida albicans SC5314 infected in cyclophosphamide-induced immunosuppressed C57BL/6 mouse at 100 mg/kg, po pretreated with CTX for 3 days followed by fungal infection and further administered with compound once a day for 3 days; assay type: functional, organism-based; conditions: time 3.0 day
[33] = target: Signal transducer and activator of transcription 3 (Mus musculus) (UniProt P42227); test: Inhibition of biotinylated ACT001 probe binding to STAT3 in mouse bone marrow neutrophils at 100 uM by pulldown based Western blot analysis; assay type: cell-based; conditions: Neutrophil
Candida albicans [34] = test: Antifungal activity against candida albicans SC5314 infected in mouse assessed as reduction in PD-L1 positive Ly6G-positive neutrophils in kidney at 200 mg/kg, po administered on day 1 and 3; assay type: functional, organism-based; conditions: time 1-3 day
Candida albicans [35] = test: Antifungal activity against candida albicans SC5314 infected in mouse assessed as reduction in fungal burden in kidney at 200 mg/kg, po administered on day 1 and 3; assay type: functional, organism-based; conditions: time 1-3 day

In the case of `CC(C)CCS(=O)(=O)C[C@@H]1C(=O)O[C@H]2[C@H]1CC[C@]1(C)O[C@@]13CC[C@@](C)(O)[C@H]23`, the inhibition at 40 µM [1] is reported as 60.9% and the viability at 40 µM [2] is reported as 68.7%.
In the case of `CC1=C2CC[C@@](C)(O)[C@@H]2[C@H]2OC(=O)[C@@H](CSc3ccc(Cl)c(Cl)c3)[C@@H]2CC1`, the inhibition at 40 µM [1] is reported as 71.1% and the viability at 40 µM [2] is reported as 86.6%.
`C[C@@]1(O)CC[C@]23O[C@@]2(C)CC[C@@H]2[C@H](OC(=O)[C@H]2CS(=O)(=O)c2ccc(F)cc2)[C@@H]13` gave an inhibition at 40 µM [1] of 82.6% and a viability at 40 µM [2] of 50.7%.
`C[C@@]1(O)CC[C@]23O[C@@]2(C)CC[C@@H]2[C@H](OC(=O)[C@H]2C[S+]([O-])c2ccc(Cl)cc2Cl)[C@@H]13` (stereo in doubt; 23a) showed an inhibition at 40 µM [1] of 61.1% and a viability at 40 µM [2] of 59.2%.
In the case of `CC1=C2CC[C@@](C)(O)[C@@H]2[C@H]2OC(=O)[C@@H](CSc3ccc(C)cc3)[C@@H]2CC1`, the inhibition at 40 µM [1] is reported as 34.8% and the viability at 40 µM [2] is reported as 70.6%.
In the case of `CC1=C2CC[C@@](C)(O)[C@@H]2[C@H]2OC(=O)[C@@H](CSCCC(C)C)[C@@H]2CC1`, the inhibition at 40 µM [1] is reported as 25.2% and the viability at 40 µM [2] is reported as 101%.
Work on `C[C@@]1(O)CC[C@]23O[C@@]2(C)CC[C@@H]2[C@H](OC(=O)[C@H]2CS(=O)(=O)c2ccc(Cl)cc2Cl)[C@@H]13` yielded an inhibition at 40 µM [1] of 78.8% and a viability at 40 µM [2] of 74.9%.
With `OC(Cn1cncn1)(Cn1cncn1)c1ccc(F)cc1F` the Activity (Candida albicans [3]) was “Dose-Dependent Effect”.
`CC1=C2CC[C@@](C)(O)[C@@H]2[C@H]2OC(=O)[C@@H](C[S+]([O-])c3ccc(Cl)cc3Cl)[C@@H]2CC1` (stereo in doubt; 22a) showed an inhibition at 40 µM [1] of 64.8% and an Activity (Neutrophil [4]) of 74.28%.
`CC1=C2CC[C@@](C)(O)[C@@H]2[C@H]2OC(=O)[C@@H](CSc3c(Cl)cccc3Cl)[C@@H]2CC1` gave an inhibition at 40 µM [1] of 41.6% and a viability at 40 µM [2] of 57.5%.
In the case of `C=C1C(=O)O[C@H]2[C@H]1CCC(C)=C1CC[C@@](C)(OC(=O)CCCc3cn(CCOCCOCCOCCNC(=O)CCCC[C@H]4SC[C@H]5NC(=O)N[C@H]54)nn3)[C@@H]12`, the Activity [5] is reported as “Active” and the Activity [6] is reported as “Active”.
Molecule `CC1=C2CC[C@@](C)(O)[C@@H]2[C@H]2OC(=O)[C@@H](CN(C)C)[C@@H]2CC1` [ACT-001] has an inhibition at 40 µM [1] of 72.8%, a viability at 40 µM [2] of 27.6% and a viability at 16 h, 20 µM [7] of 37.1%. For the same molecule, the Activity (Neutrophil [8]) was 35.1%, the Activity (Neutrophil [9]) was 25.2% and the Activity (Neutrophil [10]) was 2.62%. For the same molecule, the viability at 16 h, 40 µM [11] was 26.6%, the Activity (Neutrophil [12]) was 39.2% and the Activity (Neutrophil [13]) was 29.9%. For the same molecule, the Activity (Neutrophil [14]) was 4.28%, the IC50 [15] was 16.8 µM and the IC50 at 16 h [16] was 29.3 µM. It also gave a selectivity ratio [17] of 1.7, a Papp at 12 h [18] of 4.7 ×10⁻⁶ cm/s and a half-life [19] of 1.12 h. For the same molecule, the bioavailability [20] was 50.8%, the AUC(0-inf) [21] was 5540 ng·h/mL and the Activity (Candida albicans [22]) was “Active”. For the same molecule, the Activity (Candida albicans [23]) was “Active”, the Activity (Candida albicans [24]) was “Active” and the Activity (Candida albicans [25]) was “Active”. For the same molecule, the Activity (Candida albicans [26]) was “Active”, the Activity (Neutrophil [27]) was “Active” and the Activity (Candida albicans [28]) was “Active”. For the same molecule, the Activity (Candida albicans [29]) was “Active”, the Activity (Candida albicans [30]) was “Active” and the Activity (Candida albicans [31]) was “inactive”. The Activity (Candida albicans [32]) was “inactive” and the inhibition [33] was “Active”.
Work on `CC1=C2CC[C@@](C)(O)[C@@H]2[C@H]2OC(=O)[C@@H](CSc3ccc(F)cc3)[C@@H]2CC1` yielded an inhibition at 40 µM [1] of 45.6% and a viability at 40 µM [2] of 74.6%.
For `Cc1ccc(S(=O)(=O)C[C@@H]2C(=O)O[C@H]3[C@H]2CC[C@]2(C)O[C@@]24CC[C@@](C)(O)[C@H]34)cc1`, the inhibition at 40 µM [1] was 82%, the viability at 40 µM [2] was 71.5% and the Activity (Candida albicans [34]) was “Active”. For the same molecule, the Activity (Candida albicans [35]) was “Active”.
